A word on the CC50: it is the concentration giving 50% cytotoxicity. A lower CC50 goes with harm at low concentration. As a reminder, the EC50 is the concentration that produces a half-maximal response.

We go through 20 compounds from patent US11639350B2, “Heteroaryldihydropyrimidine derivatives and methods of treating hepatitis B infections” (Janssen Pharmaceutica NV, priority 2018, dated 2023).

In one series the test system is HepG2.2.15 cells. Kind of series: Cytotoxicity determination in HepG2.2.15 cells (CCK-8). The class given is cell-based. As to conditions: 6 days of compound treatment, CCK-8, highest concentration 100 μM. Put shortly:
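HepG2.2.15 cells seeded at 5,000 cells/well in 2% FBS medium, incubated overnight at 37° C., then treated 6 days with compounds (8 points, 3-fold dilutions, top 100 μM), medium refreshed once midway. CCK-8 added for 2.5 h; A450 read against 630 nm reference; CC50 calculated, averaged over repeats.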

The next series concerns HBV. Kind of series: HBV inhibitory activity: HBV DNA in the culture medium of HepG2.2.15 cells by q-PCR. The class given is cell-based. As to conditions: HepG2.2.15 cells, 6 days of compound treatment, HBV DNA in culture medium by q-PCR, highest concentration 10 μM; read-out: EC50. The gist of the method: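 HepG2.2.15 cells in 2% FBS medium, 40,000 per well, treated 6 days with compound (medium refreshed once), eight 3-fold dilutions from 10 μM top. HBV DNA extracted from culture medium and quantified by q-PCR; EC50 averaged over repeats. Cytotoxicity run in parallel at 5,000 cells per well, top 100 μM, giving CC50.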

Take `CCOC(=O)C1=C([C@H]2CC[C@H](C(=O)O)CO2)NC(c2nccs2)=NC1c1ccc(F)cc1Cl` (single isomer, unassigned) [Compound 363H, (trans)-6-(6-(2-Chloro-4-fluorophenyl)-5-(ethoxycarbonyl)-2-(thiazol-2-yl)-3,6-dihydropyrimidin-4-yl)tetrahydro-2H-pyran-3-carboxylic Acid]: the CC50 in the series with HepG2.2.15 cells is over 100000 nM. The EC50 in the series on HBV worked out at 650 nM.

In the case of `COC(=O)C1=C(C23CC(N(C[C@@H](O)CO)S(C)(=O)=O)(C2)C3)NC(c2nccs2)=NC1c1ccc(F)cc1Cl` (single isomer, unassigned) [Compound 376D], it took 97300 nM to reach half-maximal cytotoxicity with HepG2.2.15 cells (CC50). Also, the EC50 in the series with HBV amounted to 35 nM.

`COC(=O)C1=C(C2CCCN(S(C)(=O)=O)CC2)NC(c2nccs2)=NC1c1ccc(F)cc1Cl` (single isomer, unassigned) [Compound 383D, Methyl 4-(2-chloro-4-fluorophenyl)-6-(1-(methylsulfonyl)azepan-4-yl)-2-(thiazol-2-yl)-1,4-dihydropyrimidine-5-carboxylate] registered a CC50 with HepG2.2.15 cells of 31500 nM. The EC50 with HBV was found to be 148 nM.

`COC(=O)C1=C(C2CCN(S(=O)(=O)C3CC(C)(C(=O)O)C3)CC2)NC(c2nccs2)=NC1c1ccc(F)cc1Br` (single isomer, unassigned) [Compound 410C, trans-3-((4-(6-(2-Bromo-4-fluorophenyl)-5-(methoxycarbonyl)-2-(thiazol-2-yl)-3,6-dihydropyrimidin-4-yl)piperidin-1-yl)sulfonyl)-1-methylcyclobutanecarboxylic Acid]: the CC50 in the series on HepG2.2.15 cells was determined as 24700 nM. For the same compound, the EC50 in the series with HBV worked out at 16 nM.

`COC(=O)C1=C(C2CCN(S(=O)(=O)C3CC(C)(C(=O)O)C3)CC2)NC(c2nccs2)=NC1c1ccc(F)cc1Br` (single isomer, unassigned) [Compound 410D, cis-3-((4-(6-(2-Bromo-4-fluorophenyl)-5-(methoxycarbonyl)-2-(thiazol-2-yl)-3,6-dihydropyrimidin-4-yl)piperidin-1-yl)sulfonyl)-1-methylcyclobutanecarboxylic Acid] gave a CC50 with HepG2.2.15 cells of 23700 nM. Also, in the series on HBV, the EC50 was determined as 43 nM.

`CCOC(=O)C1=C(C2CCN(S(=O)(=O)C3CC(C)(C(=O)O)C3)CC2)NC(c2nccs2)=NC1c1cccc(F)c1Br` (single isomer, unassigned) [Compound 414C, (trans)-3-((4-(6-(2-Bromo-3-fluorophenyl)-5-(ethoxycarbonyl)-2-(thiazol-2-yl)-3,6-dihydropyrimidin-4-yl)piperidin-1-yl)sulfonyl)-1-methylcyclobutanecarboxylic Acid]: the CC50 with HepG2.2.15 cells stood at 17300 nM. Besides, the EC50 in the series on HBV is 19 nM.

In turn, `CCOC(=O)C1=C(C2CCN(S(=O)(=O)C3CC(C)(C(=O)O)C3)CC2)NC(c2nccs2)=NC1c1cccc(F)c1Br` (single isomer, unassigned) [Compound 414D, (cis)-3-((4-(6-(2-Bromo-3-fluorophenyl)-5-(ethoxycarbonyl)-2-(thiazol-2-yl)-3,6-dihydropyrimidin-4-yl)piperidin-1-yl)sulfonyl)-1-methylcyclobutanecarboxylic Acid] displayed a CC50 in the series with HepG2.2.15 cells of 16300 nM. Moreover, the EC50 in the series on HBV was found to be 39 nM.

As for `CCOC(=O)C1=C(C2CCN(S(=O)(=O)C3CC(C)(C(=O)O)C3)CC2)NC(c2nccs2)=NC1c1cccc(F)c1C` (single isomer, unassigned) [Compound 429C, (trans)-3-((4-(−5-(Ethoxycarbonyl)-6-(3-fluoro-2-methylphenyl)-2-(thiazol-2-yl)-3,6-dihydropyrimidin-4-yl)piperidin-1-yl)sulfonyl)-1-methylcyclobutanecarboxylic Acid], the CC50 with HepG2.2.15 cells is 25500 nM. For the same compound, in the series on HBV, the EC50 is 66 nM.

In the case of `CCOC(=O)C1=C(C2CCN(S(=O)(=O)C3CC(C)(C(=O)O)C3)CC2)NC(c2nccs2)=NC1c1cccc(F)c1C` (single isomer, unassigned) [Compound 429D, (cis)-3-((4-(−5-(Ethoxycarbonyl)-6-(3-fluoro-2-methylphenyl)-2-(thiazol-2-yl)-3,6-dihydropyrimidin-4-yl)piperidin-1-yl)sulfonyl)-1-methylcyclobutanecarboxylic Acid], the CC50 in the series with HepG2.2.15 cells amounted to 16000 nM. Besides, the EC50 in the series with HBV was determined as 49 nM.

The compound `COC(=O)C1=C(C2CCN(S(=O)(=O)CC3(C)CCC(C(=O)O)CC3)CC2)NC(c2nccs2)=NC1c1ccc(F)cc1Cl` (single isomer, unassigned) [Compound 450A, (cis)-4-(((4-(6-(2-Chloro-4-fluorophenyl)-5-(methoxycarbonyl)-2-(thiazol-2-yl)-3,6-dihydropyrimidin-4-yl)piperidin-1-yl)sulfonyl)methyl)-4-methylcyclohexanecarboxylic Acid] returned a CC50 with HepG2.2.15 cells of 12800 nM. For the same compound, in the series with HBV, the 50% effective concentration (EC50) was determined as 17 nM.

In the series on HepG2.2.15 cells, `COC(=O)C1=C(C2CCN(S(=O)(=O)CC3(C)CCC(C(=O)O)CC3)CC2)NC(c2nccs2)=NC1c1ccc(F)cc1Cl` (single isomer, unassigned) [Compound 450B, (trans)-4-(((4-(6-(2-Chloro-4-fluorophenyl)-5-(methoxycarbonyl)-2-(thiazol-2-yl)-3,6-dihydropyrimidin-4-yl)piperidin-1-yl)sulfonyl)methyl)-4-methylcyclohexanecarboxylic Acid] had a half-maximal cytotoxic concentration (CC50) of 14000 nM. In addition, in the series on HBV, the EC50 came out at 7 nM.

Take `COC(=O)C1=C(C2CCN(S(=O)(=O)CC3(C)CCC(C(=O)O)CC3)CC2)NC(c2nccs2)=NC1c1ccc(F)c(F)c1Cl` (single isomer, unassigned) [Compound 452A, (cis)-4-(((4-(6-(2-Chloro-3,4-difluorophenyl)-5-(methoxycarbonyl)-2-(thiazol-2-yl)-3,6-dihydropyrimidin-4-yl)piperidin-1-yl)sulfonyl)methyl)-4-methylcyclohexanecarboxylic Acid]: the CC50 in the series on HepG2.2.15 cells is 9700 nM. The EC50 in the series on HBV was 6 nM.

For `COC(=O)C1=C(C2CCN(S(=O)(=O)CC3(C)CCC(C(=O)O)CC3)CC2)NC(c2nccs2)=NC1c1ccc(F)c(F)c1Cl` (single isomer, unassigned) [Compound 452B, (trans)-4-(((4-(6-(2-Chloro-3,4-difluorophenyl)-5-(methoxycarbonyl)-2-(thiazol-2-yl)-3,6-dihydropyrimidin-4-yl)piperidin-1-yl)sulfonyl)methyl)-4-methylcyclohexanecarboxylic Acid], in the series with HepG2.2.15 cells, the midpoint of cytotoxicity, the CC50, lay at 7700 nM. For the same compound, in the series with HBV, the EC50 is 5 nM.

On to `COC(=O)C1=C([C@H]2CC[C@H](C(=O)OC)CC2)NC(c2nccs2)=NC1c1ccc(F)cc1Cl` (stereo partly shown) [Compound 18X], for which the 50% cytotoxic concentration (CC50) with HepG2.2.15 cells was found to be 27900 nM. Moreover, in the series with HBV, the EC50 was determined as 42 nM.

The compound `COC(=O)C1=C(C2CCN(S(=O)(=O)C3CC(C)(C(=O)O)C3)CC2)NC(c2nccs2)=NC1c1ccc(F)cc1Cl` (stereo not drawn) [Compound 142, (cis)-3-((4-(6-(2-chloro-4-fluorophenyl)-5-(methoxycarbonyl)-2-(thiazol-2-yl)-3,6-dihydropyrimidin-4-yl)piperidin-1-yl)sulfonyl)-1-methylcyclobutane-1-carboxylic Acid] yielded a CC50 in the series with HepG2.2.15 cells of 37600 nM. Also, the EC50 with HBV amounted to 89 nM.

As for `COC(=O)C1=C(C2CCN(S(C)(=N)=O)CC2)NC(c2nccs2)=NC1c1ccc(F)c(F)c1Cl` (stereo not shown) [Compound 205B, methyl 4-(2-chloro-3,4-difluorophenyl)-6-(1-(S-methylsulfonimidoyl)piperidin-4-yl)-2-(thiazol-2-yl)-1,4-dihydropyrimidine-5-carboxylate], in the series with HepG2.2.15 cells, the half-maximal cytotoxic concentration (CC50) was 40500 nM. Also, in the series with HBV, the EC50 was found to be 189 nM.

The compound `CCOC(=O)C1=C(C2CCN(S(=O)(=O)[C@H]3C[C@](C)(C(=O)O)C3)CC2)NC(c2nccs2)=NC1c1ccc(F)c(F)c1Cl` (stereo partly drawn) [Compound 270A, (trans)-3-((4-(6-(2-Chloro-3,4-difluorophenyl)-5-(ethoxycarbonyl)-2-(thiazol-2-yl)-3,6-dihydropyrimidin-4-yl)piperidin-1-yl)sulfonyl)-1-methylcyclobutanecarboxylic Acid] gave a CC50 with HepG2.2.15 cells of 9200 nM. Besides, the EC50 in the series on HBV came out at 12 nM.

Consider `CCOC(=O)C1=C(C2CCN(S(=O)(=O)C3CC(C)(C(=O)O)C3)CC2)NC(c2nccs2)=NC1c1ccc(F)c(F)c1Cl` (stereo not drawn) [Compound 270B, (cis)-3-((4-(6-(2-Chloro-3,4-difluorophenyl)-5-(ethoxycarbonyl)-2-(thiazol-2-yl)-3,6-dihydropyrimidin-4-yl)piperidin-1-yl)sulfonyl)-1-methylcyclobutanecarboxylic Acid], for which, in the series with HepG2.2.15 cells, it took 10300 nM to reach half-maximal cytotoxicity (CC50). Further, the half-maximal effective concentration (EC50) with HBV worked out at 17 nM.

As for `CCOC(=O)C1=C(C2CCN(S(=O)(=O)C3CC(C)(C(=O)O)C3)CC2)NC(c2nccs2)=NC1c1ccc(F)cc1Cl` (stereo not drawn) [Compound 272A, (trans)-3-((4-(6-(2-Chloro-4-fluorophenyl)-5-(ethoxycarbonyl)-2-(thiazol-2-yl)-3,6-dihydropyrimidin-4-yl)piperidin-1-yl)sulfonyl)-1-methylcyclobutanecarboxylic Acid], the CC50 with HepG2.2.15 cells was determined as 16600 nM. For the same compound, the EC50 in the series with HBV was found to be 17 nM.

`CCOC(=O)C1=C(C2CCN(S(=O)(=O)[C@H]3C[C@@](C)(C(=O)O)C3)CC2)NC(c2nccs2)=NC1c1ccc(F)cc1Cl` (stereo partly drawn) [Compound 272B, (cis)-3-((4-(6-(2-Chloro-4-fluorophenyl)-5-(ethoxycarbonyl)-2-(thiazol-2-yl)-3,6-dihydropyrimidin-4-yl)piperidin-1-yl)sulfonyl)-1-methylcyclobutanecarboxylic Acid] registered a CC50 in the series on HepG2.2.15 cells of 20100 nM. The EC50 in the series on HBV turned out to be 47 nM.
